Source: patent US10294230B2, “3,3-difluoropiperidine carbamate heterocyclic compounds as NR2B NMDA receptor antagonists” (Rugen Holdings (Cayman) Limited, priority 2015, dated 2019)

Tests used:
[1] = biological target: human NR1/NR2B (Homo sapiens (Human), UniProt Q05586+Q13224); assay: NR2B antagonist activity, Fluo-4 calcium influx in HEK293 cells; assay type: cell-based
Protocol: HEK293 cell lines stably expressing cloned human NR1/NR2B and NR1/NR2A, respectively, were established according to standard previously described methods (Hansen et al., Comb. Chem High Throughput Screen. 11:304, 2008). Activation of the NR2A or NR2B subtype of NMDA receptor with glutamate as an agonist and glycine co-agonist on these cells results in calcium influx, which can be monitored with fluorescent indicator Fluo-4.
For experiments, the cells were seeded onto poly-D-lysine-coated 96-well black plates with clear bottom (Corning) at a density of ˜50,000 cells/well. After overnight culture, the growth medium was removed from the wells and the cells were incubated at 37° C. for 60 min in Hanks buffer containing 4 μM fluo-4-AM (Invitrogen) and 0.1% bovine serum albumin (BSA). After dye-loading, the cells were washed three times with Hanks buffer and incubated for 10 min at room temperature with various concentrations of test compounds prepared in Hanks buffer with 0.1% BSA. The cell plates were placed onto FDSS pCell fluorescence reader (Hamamatsu). After 20 sec reading of background fluorescence, agonist glutamate at final 100 μM and co-agonist glycine at final 50 μM were added to the cells to activate the receptor, and the resulting fluorescence changes were recorded and quantified. Based on the changes in fluorescence intensity, the pharmacological effect of test compounds were analyzed and the IC50 values derived from a non-linear least squares fitting of the concentration-dependent response to a standard logistic equation using Prism (Graphpad, Inc): Amplitude=Max Amplitude/(1+(IC50/[antagonist])^n).

[2] = biological target: CYP2D6 (Homo sapiens (Human), UniProt P10635); assay: CYP P450 enzyme inhibition, pooled human liver microsome; assay type: in vitro ADME; settings: 10 μM, pooled HLM, dextromethorphan 5 μM
Protocol: Those CYP isoforms and their corresponding probe substrates are as follows: CYP1A2 (phenacetin, 30 μM), CYP2C9 (tolutamide, 100 μM), CYP2C19 (S-mephenytoin, 40 μM), CYP2D6 (dextromethorphan, 5 μM) and CYP3A4 (midazolam, 1 μM). All probe substrates were used at concentrations near or below their Kms. For experiment, a reaction mixture of test compound at 10 μM or in serial dilution, CYP probe substrate described above and 0.2 mg/mL pooled HLM in phosphate buffer, pH 7.4 in a final volume of 200 μL was pre-incubated at 37° C. for 10 minutes in triplicate. The reaction was initiated by addition of NADPH at final concentration of 1 mM. The reaction was terminated after 10 minutes (CYP1A2, CYP2D6 and CYP3A4) or 30 minutes (CYP2C9 and CYP2C19) by addition of 100 μL ice-cold acetonitrile with internal standard (IS). The samples were then centrifuged at 13,000 rpm and the supernatants were injected to LC-MS/MS (Agilent Technologies) to quantify the concentration of the specific metabolites of the probe substrates formed by individual CYP450 isoforms. The inhibition ratio is calculated as: (Mt−M0)/Mwater×100% in which Mt and M0 represent the concentrations of the specific probe substrate metabolite, which was formed by individual CYP450 isoform, at the beginning and end of the reaction in the presence of test compound; while Mwater represents the concentration of the specific metabolite at the end of the reaction in the absence of test compound. Test compound concentration-dependent response data experiments performed in triplicate.

[3] = biological target: NR2B receptor (Rattus norvegicus (Rat), UniProt P35439+Q00960); assay: [3H] (E)-N1-(2-methoxybenzyl)-cinnamidine radioligand binding, rat brain membranes
Protocol: (§1) This example describes NMDA receptor binding assays using two different radioligands, [^3H] […] An established binding assay using the non-selective NMDA receptor ligand [^3H] […] The binding assay method using the NR2B selective receptor ligand [^3H] […] This assay serves as a selective measure of NR2B receptor binding activity in native rat brain receptors. Briefly, the brains of Male Wistar rats were homogenized (Polytron) before centrifugation at 40,000×g for 15 minutes at 4° C. After 2 washes, the final pellet was homogenized and stored at −80° C. The protein concentration was determined by Bradford assay.
[^3H] […] Thus, using [^3H]
(§2) Test compounds were solubilized at 10 mM in DMSO. Then the dilutions were performed with a constant solvent concentration (1% DMSO) in the assay.
(§3) After incubation for 4.5 h at room temperature, the assays were filtered on GF/B filters pretreated with 0.3% (v/v) PEI with a Brandel system for [^3H] […] The experiment was performed in duplicate (n=2).

[4] = system: pentylenetetrazole (PTZ) induced convulsions; assay: Pentylenetetrazole (PTZ) Seizure Test; assay type: in vivo; settings: 10 mg/kg p.o., mesylate salt
Protocol: Rats, placed in individual macrolon cages (25×19×13 cm), were injected with pentylenetetrazole (PTZ) (100 mg/kg s.c.). The occurrence and latency of clonic and tonic convulsions and death were noted over a 30 minute period. 15 rats were studied per group. The test was performed blind. […]
Compounds were evaluated typically using 0.5% dimethylsulfoxide, 4% hydroxypropyl-b-cyclodextrin water as a vehicle at 1 or more doses (e.g., 1, 3 and 10 mg/kg), administered p.o. 30 minutes before PTZ, and compared with a vehicle control group. Diazepam (16 mg/kg p.o.), administered 60 minutes before PTZ, was used as reference substance. The experiment was performed over 2 separate sub-experiments with N=7 to 8 animals per group and per sub-experiment. Quantitative data (latencies) with the test substance was analyzed by comparing treated groups with vehicle control using Kruskal-Wallis test followed by Mann-Whitney U test. Quantitative data with the reference substance was analyzed using Mann-Whitney U test. Quantal data (frequencies) was analyzed by comparing treated groups with vehicle control using Fisher's Exact Probability tests (*=p<0.05; **=p<0.01; ***=p<0.001).

[5] = system: NMDA receptor; assay: [3H] MK-801 radioligand binding, rat brain membranes; settings: 2 nM [3H] MK-801
Protocol: as §1, §2, §3

[6] = system: formalin-induced nociceptive behavior; assay: Rat Formalin Model; assay type: in vivo; settings: rats, 10, 30 and 60 mpk i.p., mesylate salt
Protocol: The rat formalin model is a tonic model of continuous pain resulting from formalin-induced spontaneous nociceptive behaviors. Intra-paw injection of formalin is a commonly used model to measure spontaneous nociceptive behaviors in rodents (Dubuisson, D. and Dennis, S. G. Pain 4:161, 1977). Subcutaneous plantar injection of formalin causes a bi-phasic nocifensive behavioral response in rodents. The early phase (phase-1) lasts for about 5-10 min following which an interphase occurs without any discernible nociceptive reactions after which the late phase (phase-II) nociceptive reaction ensues continuing from about 20-60 min following formalin injection. Formalin model is a model of tonic, persistent pain, and is widely used for rapid screening of novel analgesic compounds. […] In the present example, effects of test item were assessed in 0-5 minutes from the early phase (phase-I) and 20-35 minutes from the late phase (phase-II) of formalin-induced nociceptive behavior. […]
For all groups, animals were acclimated to the observation chamber for 15 minutes immediately prior to formalin injection. All animals received an intraplantar subcutaneous injection of 50 μL of 5% formalin into the left hind paw and then placed immediately into an observation chamber and formalin-evoked spontaneous nociceptive behaviors in the rats were continuously recorded for 0-60 min using a commercial camcorder. […]

Chain of human NR1/NR2B (Q13224 27-1484, other chains not shown): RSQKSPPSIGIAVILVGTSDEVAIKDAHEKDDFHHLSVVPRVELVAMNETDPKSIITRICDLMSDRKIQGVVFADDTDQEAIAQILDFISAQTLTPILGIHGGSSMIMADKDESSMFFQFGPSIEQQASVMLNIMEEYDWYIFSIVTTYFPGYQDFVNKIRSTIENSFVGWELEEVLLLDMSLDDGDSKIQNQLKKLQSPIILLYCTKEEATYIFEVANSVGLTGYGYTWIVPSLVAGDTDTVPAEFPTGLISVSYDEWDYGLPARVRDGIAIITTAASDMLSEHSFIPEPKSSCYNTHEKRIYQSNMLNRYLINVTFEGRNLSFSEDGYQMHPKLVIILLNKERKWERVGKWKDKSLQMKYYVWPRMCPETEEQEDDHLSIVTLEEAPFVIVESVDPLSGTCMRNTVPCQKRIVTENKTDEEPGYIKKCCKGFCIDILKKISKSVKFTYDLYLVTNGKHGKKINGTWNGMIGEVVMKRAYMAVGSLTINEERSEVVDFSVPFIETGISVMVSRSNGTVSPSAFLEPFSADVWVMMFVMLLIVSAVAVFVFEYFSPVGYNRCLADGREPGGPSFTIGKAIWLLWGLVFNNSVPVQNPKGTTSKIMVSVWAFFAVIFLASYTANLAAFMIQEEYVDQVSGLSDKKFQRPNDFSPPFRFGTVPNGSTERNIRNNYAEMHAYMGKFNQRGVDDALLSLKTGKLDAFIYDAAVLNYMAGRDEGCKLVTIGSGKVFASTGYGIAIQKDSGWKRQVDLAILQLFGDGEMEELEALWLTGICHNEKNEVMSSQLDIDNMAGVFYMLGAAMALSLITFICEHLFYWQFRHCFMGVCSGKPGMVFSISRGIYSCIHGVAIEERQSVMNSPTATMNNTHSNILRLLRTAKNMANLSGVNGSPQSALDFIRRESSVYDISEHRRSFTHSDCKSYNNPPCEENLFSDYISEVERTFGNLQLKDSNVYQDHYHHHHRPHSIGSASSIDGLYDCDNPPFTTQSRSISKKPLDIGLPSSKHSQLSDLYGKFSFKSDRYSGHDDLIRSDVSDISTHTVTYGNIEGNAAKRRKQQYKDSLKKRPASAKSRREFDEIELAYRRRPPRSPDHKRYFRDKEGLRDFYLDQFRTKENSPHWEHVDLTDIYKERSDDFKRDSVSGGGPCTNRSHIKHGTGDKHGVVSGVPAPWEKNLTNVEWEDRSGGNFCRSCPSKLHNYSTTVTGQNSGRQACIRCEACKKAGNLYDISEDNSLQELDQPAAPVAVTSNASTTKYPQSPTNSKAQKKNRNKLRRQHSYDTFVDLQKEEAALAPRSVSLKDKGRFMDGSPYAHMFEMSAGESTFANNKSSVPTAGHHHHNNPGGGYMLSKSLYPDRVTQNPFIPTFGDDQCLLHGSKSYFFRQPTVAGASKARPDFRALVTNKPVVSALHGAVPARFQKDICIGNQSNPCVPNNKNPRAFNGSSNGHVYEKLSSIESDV
Chain of NR2B receptor (Q00960 27-1482, other chains not shown): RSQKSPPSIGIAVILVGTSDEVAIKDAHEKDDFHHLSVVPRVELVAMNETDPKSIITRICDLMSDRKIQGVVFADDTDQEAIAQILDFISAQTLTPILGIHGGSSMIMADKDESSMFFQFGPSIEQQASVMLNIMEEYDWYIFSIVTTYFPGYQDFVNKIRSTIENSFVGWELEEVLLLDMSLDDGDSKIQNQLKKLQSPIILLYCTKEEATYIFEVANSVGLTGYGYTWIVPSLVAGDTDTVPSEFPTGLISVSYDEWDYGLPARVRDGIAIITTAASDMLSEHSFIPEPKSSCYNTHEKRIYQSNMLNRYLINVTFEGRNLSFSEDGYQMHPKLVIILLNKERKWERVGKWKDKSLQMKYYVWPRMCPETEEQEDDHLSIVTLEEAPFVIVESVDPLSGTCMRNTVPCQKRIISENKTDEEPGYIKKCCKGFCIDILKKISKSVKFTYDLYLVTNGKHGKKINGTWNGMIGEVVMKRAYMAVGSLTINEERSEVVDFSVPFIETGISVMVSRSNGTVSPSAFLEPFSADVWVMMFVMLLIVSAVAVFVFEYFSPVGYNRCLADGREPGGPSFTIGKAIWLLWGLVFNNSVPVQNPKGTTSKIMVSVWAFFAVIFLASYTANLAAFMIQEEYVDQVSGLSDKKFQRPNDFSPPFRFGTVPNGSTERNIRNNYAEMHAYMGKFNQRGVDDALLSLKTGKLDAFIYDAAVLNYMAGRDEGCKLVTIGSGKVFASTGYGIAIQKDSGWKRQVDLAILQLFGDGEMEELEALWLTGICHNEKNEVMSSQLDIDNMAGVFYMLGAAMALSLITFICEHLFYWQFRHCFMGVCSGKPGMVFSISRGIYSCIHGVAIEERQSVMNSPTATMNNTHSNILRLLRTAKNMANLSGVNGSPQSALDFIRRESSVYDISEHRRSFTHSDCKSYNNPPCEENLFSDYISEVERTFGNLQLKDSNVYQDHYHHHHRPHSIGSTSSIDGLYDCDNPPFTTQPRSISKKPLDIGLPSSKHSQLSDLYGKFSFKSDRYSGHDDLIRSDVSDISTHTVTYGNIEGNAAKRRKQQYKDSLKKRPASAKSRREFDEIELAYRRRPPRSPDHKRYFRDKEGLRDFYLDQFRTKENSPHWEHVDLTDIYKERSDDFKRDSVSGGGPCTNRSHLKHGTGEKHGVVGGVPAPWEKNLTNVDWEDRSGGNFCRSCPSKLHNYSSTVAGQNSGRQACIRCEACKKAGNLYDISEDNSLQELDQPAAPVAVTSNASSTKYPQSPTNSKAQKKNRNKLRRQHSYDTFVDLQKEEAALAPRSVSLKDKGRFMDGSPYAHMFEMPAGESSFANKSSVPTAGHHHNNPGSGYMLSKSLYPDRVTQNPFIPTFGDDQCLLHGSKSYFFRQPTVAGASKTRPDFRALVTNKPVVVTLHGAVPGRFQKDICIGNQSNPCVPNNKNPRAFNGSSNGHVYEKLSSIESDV
Chain of CYP2D6 (P10635 whole entry): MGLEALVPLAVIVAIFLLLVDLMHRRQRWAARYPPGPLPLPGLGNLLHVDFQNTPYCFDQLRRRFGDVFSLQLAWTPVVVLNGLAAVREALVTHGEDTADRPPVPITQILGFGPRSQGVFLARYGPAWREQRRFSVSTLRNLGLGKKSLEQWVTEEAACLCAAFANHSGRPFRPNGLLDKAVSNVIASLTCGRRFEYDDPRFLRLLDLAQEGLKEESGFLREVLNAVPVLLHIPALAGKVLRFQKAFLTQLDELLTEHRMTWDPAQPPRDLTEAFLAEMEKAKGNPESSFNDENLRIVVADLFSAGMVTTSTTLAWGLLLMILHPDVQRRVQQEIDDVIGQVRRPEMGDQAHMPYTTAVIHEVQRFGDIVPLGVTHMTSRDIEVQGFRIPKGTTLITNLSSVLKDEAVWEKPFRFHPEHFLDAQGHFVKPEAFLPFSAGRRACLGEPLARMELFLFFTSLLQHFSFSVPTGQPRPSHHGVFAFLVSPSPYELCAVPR

## Cc1ccc(COC(=O)N2CC[C@H](CNc3nccn4cnnc34)C(F)(F)C2)cc1 [Compound E1-1.2, (+)-R-4-methylbenzyl 4-(([1,2,4]triazolo[4,3-a]pyrazin-8-ylamino)methyl)-3,3-difluoropiperidine-1-carboxylate]
[1]; Table 2.1, HEK293 human NR1/NR2B, glutamate 100 μM, glycine 50 μM
  IC50: 21 nM
[1]; Table 2.2
  IC50: 21 nM
[1]; Table 2.3
  IC50: 21 nM
[2]
  CYP2D6 @ 10 μM (%): 14%
[3]; rat brain membranes
  displacement of [3H] (E)-N1-(2-methoxybenzyl)-cinnamidine at the NR2B receptor high affinity site: 96%
[3]; read-out: Ki at the NR2B receptor high affinity site
  Ki: 5.23 nM
[4]
  number of rats showing tonic convulsions, change vs vehicle controls: −82%
[4]; rats
  latency to clonic convulsions, change vs vehicle controls: +72%
  latency to death, change vs vehicle controls: +35%
  latency to tonic convulsions, change vs vehicle controls: +39%
  number of deaths, change vs vehicle controls: −91%
[5]
  partial effect on [3H] MK-801 binding: 40%
[6]
  cumulative time spent on nociceptive behavior in phase I (0-5 mins): decreased
  cumulative time spent on nociceptive behavior in phase II (20-35 mins): decreased
